# Test results taken from US9776979B2, “EBI2 modulators” (Sanford-Burnham Medical Research Institute, priority 2013, dated 2017).
# Molecular target: EBI2 (Homo sapiens, UniProt P32249)
# Experiment: Cell-based luminescent assay (EBI2 modulation)
# Conditions: cell-based luminescence; 7a,25-OHC final assay concentration 80 nM; 60 minutes incubation; read-out: IC50
# Protocol: Cell-Based Luminescent Assay
# To assess EBI2 modulation, the compounds described herein were assayed in the following cell-based luminescent assay:
# 1) Plated 600 cells/well in 4 uL of assay media into columns 1-48 of a 1536-well assay plate, using a liquid dispenser.
# 2) Centrifuged plates at 1000 rpm for 1 minute and covered with lids.
# 3) Incubated overnight at 37° C., 100% relative humidity, 5% CO2.
# 1) Centrifuged compound plates containing compounds described herein at 500 rpm for 1 minute.
# 2) Added compounds into assay plate col 5-48 to final concentration 4-5 uM. Added matching amount of DMSO to positive and negative control wells in columns 1-4.
# 3) Dispensed 2 ul/well of assay media to columns 1-2 for the positive control wells.
# 4) Added 2 ul/well of 400 nM 7a,25-OHC (final assay concentration=80 nM) in assay media to columns 3-48 for the negative control and test compound wells.
# 5) Centrifuged plates at 1000 rpm for 1 minute and re-lid plates.
# 6) Incubated plates at 37° C., 100% relative humidity, 5% CO2 for 60 minutes.
# 7) Following 60 minute incubation, delivered 2.5 uL of Detection Reagent solution to each assay plate (Columns 1-48) using a liquid handler.
# 8) Centrifuged plates at 2000 rpm for 2 minutes and re-lid plates.
# 9) Incubated plates for 60 minutes at 25 degrees in the dark.
# 10) Read plates using the Viewlux, Envision or other suitable plate reader using a luminescence detection.
# The experimental values were normalized by the difference between values from neutral and stimulator control wells in each plate. Then normalized data was corrected to remove systematic plate patterns due to artifacts such as dispensing tip issues etc.
# EBI2, sequence (P32249 whole entry): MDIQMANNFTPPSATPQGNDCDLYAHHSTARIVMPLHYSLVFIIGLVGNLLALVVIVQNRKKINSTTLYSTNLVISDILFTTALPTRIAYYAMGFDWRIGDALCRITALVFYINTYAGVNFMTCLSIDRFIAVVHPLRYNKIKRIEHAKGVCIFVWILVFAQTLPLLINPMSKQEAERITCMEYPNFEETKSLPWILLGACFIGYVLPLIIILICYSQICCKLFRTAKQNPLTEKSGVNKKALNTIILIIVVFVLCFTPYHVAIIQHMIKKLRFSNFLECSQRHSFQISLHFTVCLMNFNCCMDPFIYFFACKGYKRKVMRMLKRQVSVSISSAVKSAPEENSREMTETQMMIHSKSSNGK
row,Structure (SMILES),IC50 [nM]
1,"Cc1ccc(C#CC(=O)N2CCN(C(=O)c3ccc(Cl)cc3)CC2)cc1 [Compound C33, 1-{4-[(4-chlorophenyl)carbonyl]piperazinyl}-3-(4-methylphenyl)prop-2-yn-1-one]",< 100
2,"O=C(C#Cc1cccc(Cl)c1)N1CCN(C(=O)c2ccc(Cl)cc2)CC1 [Compound C34, 3-(3-chlorophenyl)-1-{4-[(4-chlorophenyl)carbonyl]piperazinyl}prop-2-yn-1-one]",< 100
3,"O=C(C#Cc1cccc(Cl)c1)N1CCN(C(=O)c2ccc(F)cc2)CC1 [Compound C35, 3-(3-chlorophenyl)-1-{4-[(4-fluorophenyl)carbonyl]piperazinyl}prop-2-yn-1-one]",< 100
4,"Cc1ccc(C#CC(=O)N2CCN(C(=O)c3ccc(F)cc3)CC2)cc1 [Compound C38, 1-{4-[(4-fluorophenyl)carbonyl]piperazinyl}-3-(4-methylphenyl)prop-2-yn-1-one]",< 100
5,"CC(C)CN1CCN(C(=O)/C=C/c2ccc(Br)cc2)CC1 [Compound C52, (2E)-3-(4-bromophenyl)-1-[4-(methylpropyl)piperazinyl]prop-2-en-1-one]",< 100
6,"Cc1ccc(C#CC(=O)N2CCN(C(=O)c3ccc(C(F)(F)F)cc3)CC2)cc1 [Compound C53, 3-(4-methylphenyl)-1-(4-{[4-(trifluoromethyl)phenyl]carbonyl}piperazinyl)prop-2-yn-1-one]",< 100
7,"Cc1ccc2[nH]c(C(=O)N3CCN(S(=O)(=O)CCc4ccccc4)CC3)cc2c1 [Compound C57, 5-methylindol-2-yl 4-[(2-phenylethyl)sulfonyl]piperazinyl ketone]",< 100
8,"COc1ccc(C(=O)N2CCN(C(=O)C#Cc3cccc(Cl)c3)CC2)cc1 [Compound C59, 3-(3-chlorophenyl)-1-{4-[(4-methoxyphenyl)carbonyl]piperazinyl}prop-2-yn-1-one]",< 100
9,"O=C(C#Cc1ccc(C(F)(F)F)cc1)N1CCN(C(=O)c2ccc(Cl)cc2)CC1 [Compound C60, 1-{4-[(4-chlorophenyl)carbonyl]piperazinyl}-3-[4-(trifluoromethyl)phenyl]prop-2-yn-1-one]",< 100
10,"O=C(C#Cc1ccc(Br)cc1)N1CCN(C(=O)c2ccc(Br)cc2)CC1 [Compound C61, 3-(4-bromophenyl)-1-{4-[(4-bromophenyl)carbonyl]piperazinyl}prop-2-yn-1-one]",< 100
11,"COC(=O)c1ccc(C(=O)N2CCN(C(=O)c3cc4cc(Cl)ccc4[nH]3)CC2)cc1 [Compound C62, methyl 4-({4-[(5-chloroindol-2-yl)carbonyl]piperazinyl}carbonyl)benzoate]",< 100
12,"O=C(C#Cc1ccccc1)N1CCN(C(=O)c2ccc(Br)cc2)CC1 [Compound C65, 1-{4-[(4-bromophenyl)carbonyl]piperazinyl}-3-phenylprop-2-yn-1-one]",< 100
13,"O=C(C#Cc1ccc(F)cc1)N1CCN(C(=O)c2ccc(Cl)cc2)CC1 [Compound C69, 1-{4-[(4-chlorophenyl)carbonyl]piperazinyl}-3-(4-fluorophenyl)prop-2-yn-1-one]",< 100
14,"O=C(C#Cc1ccc(Br)cc1)N1CCN(C(=O)c2ccc(F)cc2)CC1 [Compound C70, 3-(4-bromophenyl)-1-{4-[(4-fluorophenyl)carbonyl]piperazinyl}prop-2-yn-1-one]",< 100
15,"COc1cc(CN2CCN(C(=O)/C=C/c3ccc(Br)cc3)CC2)cc(OC)c1 [Compound C72, (2E)-1-{4-[(3,5-dimethoxyphenyl)methyl]piperazinyl}-3-(4-bromophenyl)prop-2-en-1-one]",< 100
16,"O=C(C#Cc1ccc(Cl)cc1)N1CCN(C(=O)c2ccc(C(F)(F)F)cc2)CC1 [Compound C73, 3-(4-chlorophenyl)-1-(4-{[4-(trifluoromethyl)phenyl]carbonyl}piperazinyl)prop-2-yn-1-one]",< 100
17,"COc1ccc(C(=O)N2CCN(C(=O)C#Cc3ccc(F)cc3)CC2)cc1 [Compound C75, 3-(4-fluorophenyl)-1-{4-[(4-methoxyphenyl)carbonyl]piperazinyl}prop-2-yn-1-one]",< 100
18,"O=C(C#Cc1ccc(C(F)(F)F)cc1)N1CCN(C(=O)c2ccc(F)cc2)CC1 [Compound C76, 1-{4-[(4-fluorophenyl)carbonyl]piperazinyl}-3-[4-(trifluoromethyl)phenyl]prop-2-yn-1-one]",< 100
19,"CCC(C)C(=O)N1CCN(C(=O)/C=C/c2ccc(Br)cc2)CC1 (stereo not drawn) [Compound C78, (2E)-3-(4-bromophenyl)-1-[4-(2-methylbutanoyl)piperazinyl]prop-2-en-1-one]",< 100
20,"COC(=O)c1ccc(C(=O)N2CCN(C(=O)c3cc4cc(Br)ccc4[nH]3)CC2)cc1 [Compound C81, methyl 4-({4-[(5-bromoindol-2-yl)carbonyl]piperazinyl}carbonyl)benzoate]",< 100

# Next, values leading:
row,IC50 [nM],Structure (SMILES)
1,< 100,"O=C(/C=C/c1ccc(C(F)(F)F)cc1)N1CCN(C(c2ccccc2)c2ccccc2)CC1 [Compound C29, (2E)-1-[4-(diphenylmethyl)piperazinyl]-3-[4-(trifluoromethyl)phenyl]prop-2-en-1-one]"
2,< 100,"O=C(/C=C/c1ccc(Br)cc1)N1CCN(Cc2cc(F)cc(F)c2)CC1 [Compound C31, (2E)-1-{4-[(3,5-difluorophenyl)methyl]piperazinyl}-3-(4-bromophenyl)prop-2-en-1-one]"
3,< 100,"Cc1cc(CN2CCN(C(=O)/C=C/c3ccc(Br)cc3)CC2)ccc1F [Compound C32, (2E)-3-(4-bromophenyl)-1-{4-[(4-fluoro-3-methylphenyl)methyl]piperazinyl}prop-2-en-1-one]"
4,< 100,"O=C(/C=C/c1ccc(Br)cc1)N1CCN(S(=O)(=O)c2ccc(Br)cc2)CC1 [Compound C37, (2E)-3-(4-bromophenyl)-1-{4-[(4-bromophenyl)sulfonyl]piperazinyl}prop-2-en-1-one]"
5,< 100,"O=C(/C=C/c1ccc(Br)cc1)N1CCN(Cc2ccc(Cl)c(Cl)c2)CC1 [Compound C39, (2E)-1-{4-[(3,4-dichlorophenyl)methyl]piperazinyl}-3-(4-bromophenyl)prop-2-en-1-one]"
6,< 100,O=C(/C=C/c1ccc(Cl)cc1F)N1CCN(C(c2ccccc2)c2ccccc2)CC1 [Compound C40]
7,< 100,"Cc1ccc(CN2CCN(C(=O)/C=C/c3ccc(Br)cc3)CC2)cc1 [Compound C41, (2E)-3-(4-bromophenyl)-1-{4-[(4-methylphenyl)methyl]piperazinyl}prop-2-en-1-one]"
8,< 100,"O=C(/C=C/c1ccccc1)N1CCN(C(c2ccccc2)c2ccccc2)CC1 [Compound C42, (2E)-1-[4-(diphenylmethyl)piperazinyl]-3-phenylprop-2-en-1-one]"
9,< 100,"O=C(/C=C/c1ccc(Br)cc1)N1CCN(C(=O)c2ccc(C(F)(F)F)cc2)CC1 [Compound C44, (2E)-3-(4-bromophenyl)-1-(4-{[4-(trifluoromethyl)phenyl]carbonyl}piperazinyl)prop-2-en-1-one]"
10,< 100,"O=C(c1cc2ccc(Cl)cc2s1)N1CCN(C(c2ccccc2)c2ccccc2)CC1 [Compound C45, 4-(diphenylmethyl)piperazinyl 6-chlorobenzo[b]thiophen-2-yl ketone]"
11,< 100,"Cc1ccc2[nH]c(C(=O)N3CCN(S(=O)(=O)/C=C/c4ccccc4)CC3)cc2c1 [Compound C48, 4-[((1E)-2-phenylvinyl)sulfonyl]piperazinyl 5-methylindol-2-yl ketone]"
12,< 100,"CCCCN1CCN(C(=O)/C=C/c2ccc(Br)cc2)CC1 [Compound C49, (2E)-3-(4-bromophenyl)-1-(4-butylpiperazinyl)prop-2-en-1-one]"
13,< 100,"O=C(c1cc2cc(Cl)ccc2[nH]1)N1CCN(C(c2ccccc2)c2ccccc2)CC1 [Compound C56, 4-(diphenylmethyl)piperazinyl 5-chloroindol-2-yl ketone]"
14,< 100,"Cc1ccc(C#CC(=O)N2CCN(C(c3ccccc3)c3ccccc3)CC2)cc1 [Compound C58, 1-[4-(diphenylmethyl)piperazinyl]-3-(4-methylphenyl)prop-2-yn-1-one]"
15,< 100,"O=C(/C=C/c1ccc([N+](=O)[O-])cc1)N1CCN(C(c2ccccc2)c2ccccc2)CC1 [Compound C63, (2E)-1-[4-(diphenylmethyl)piperazinyl]-3-(4-nitrophenyl)prop-2-en-1-one]"
16,< 100,"O=C(C#Cc1ccc(C(F)(F)F)cc1)N1CCN(C(c2ccccc2)c2ccccc2)CC1 [Compound C66, 1-[4-(diphenylmethyl)piperazinyl]-3-[4-(trifluoromethyl)phenyl]prop-2-yn-1-one]"
17,< 100,"O=C(/C=C/c1ccc(F)cc1)N1CCN(C(c2ccccc2)c2ccccc2)CC1 [Compound C68, (2E)-1-[4-(diphenylmethyl)piperazinyl]-3-(4-fluorophenyl)prop-2-en-1-one]"
18,< 100,"O=C(c1cc2ccccc2[nH]1)N1CCN(C(c2ccccc2)c2ccccc2)CC1 [Compound C71, 4-(diphenylmethyl)piperazinyl indol-2-yl ketone]"
19,< 100,"O=C(c1cc2cc(C(F)(F)F)ccc2[nH]1)N1CCN(C(c2ccccc2)c2ccccc2)CC1 [Compound C79, 4-(diphenylmethyl)piperazinyl 5-(trifluoromethyl)indol-2-yl ketone]"
